Source: ChEMBL document CHEMBL1932941, “3-mercapto-1,2,4-triazoles and N-acylated thiosemicarbazides as metallo-β-lactamase inhibitors” (Bioorg Med Chem Lett, 2012)

Columns and labels:
[1] = Solubility of the compound; assay type: physicochemical
[2] = target: Beta-lactamase (Pseudomonas aeruginosa) (UniProt Q79MP6); test: Inhibition of Pseudomonas aeruginosa beta-lactamase IMP-1 expressed in Escherichia coli BL21(DE3) at 10 uM using CENTA as chromogenic substrate
[3] = target: Beta-lactamase (Pseudomonas aeruginosa) (UniProt Q79MP6); test: Inhibition of Pseudomonas aeruginosa beta-lactamase IMP-1 expressed in Escherichia coli BL21(DE3) at 100 uM using CENTA as chromogenic substrate
[4] = target: Beta-lactamase (Pseudomonas aeruginosa) (UniProt Q79MP6); test: Competitive inhibition of Pseudomonas aeruginosa beta-lactamase IMP-1 assessed as formation of 4-nitrothiophenolate at pH 7 using CENTA as chromogenic substrate
[5] = target: Beta-lactamase (Pseudomonas aeruginosa) (UniProt Q79MP6); test: Uncompetitive inhibition of Pseudomonas aeruginosa beta-lactamase IMP-1 assessed as formation of 4-nitrothiophenolate at pH 7 using CENTA as chromogenic substrate
[6] = target: Beta-lactamase (Pseudomonas aeruginosa) (UniProt Q79MP6); test: Inhibition of Pseudomonas aeruginosa beta-lactamase IMP-1 expressed in Escherichia coli BL21(DE3) at 1000 uM using CENTA as chromogenic substrate

Sequence of Beta-lactamase (Pseudomonas aeruginosa) (Q79MP6 19-246 limits assumed): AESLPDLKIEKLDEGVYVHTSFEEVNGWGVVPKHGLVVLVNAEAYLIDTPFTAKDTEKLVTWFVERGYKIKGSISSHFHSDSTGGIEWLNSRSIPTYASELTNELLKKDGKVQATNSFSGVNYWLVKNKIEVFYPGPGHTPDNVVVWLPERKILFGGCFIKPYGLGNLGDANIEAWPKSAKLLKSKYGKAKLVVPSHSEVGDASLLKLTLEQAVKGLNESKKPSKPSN

| SMILES | inhibition [2] [%] | Kiuc [5] [µM] | other results |
| --- | --- | --- | --- |
| CCCCCCSc1nnc(C(C)(C)C)[nH]1 |  |  | solubility [1]: Insoluble |
| NC(=S)NNC(=O)c1ccc(C(=O)c2ccccc2Cl)cc1 | 51 | 13 | Kic [4]: 14 µM |
| CC(C)(C)c1nnc(S)[nH]1 |  |  | inhibition [6]: 32% |
| C[C@H](CS)C(=O)N1CCC[C@H]1C(=O)O |  | > 2000 |  |
| Cc1nnc(S)[nH]1 |  |  | inhibition [6]: 33% |
| NC(=S)NNC(=O)c1cccc([N+](=O)[O-])c1 | 30 |  |  |
| CSc1nnc(C(C)(C)C)[nH]1 |  |  | inhibition [6]: 10% |
| NC(=S)NNC(=O)CCCC(=O)O | 8 |  |  |
| NC(=S)NNC(=O)c1ccccc1C(=O)O | 0 |  |  |
| NC(=S)NNC(=O)c1ccc(C(=O)c2ccc([N+](=O)[O-])cc2)cc1 | 45 | 20 | Kic [4]: 11 µM |
| O=[N+]([O-])c1cccc(-c2nnc(S)[nH]2)c1 |  |  | solubility [1]: Insoluble |
| O=C(c1ccccc1)c1ccc(-c2nnc(S)[nH]2)cc1 | 10 | 56 | Kic [4]: 75 µM; inhibition [3]: 44% |
| FC(F)(F)c1nnc(S)[nH]1 |  |  | inhibition [6]: 45% |
| CNC(=S)NNC(=O)C(C)(C)C | 0 |  |  |
| CCCCCCc1nnc(S)[nH]1 |  |  | solubility [1]: Insoluble |
| NC(=S)NNC(=O)c1ccc(Cc2ccccc2)cc1 | 26 | 37 | Kic [4]: 18 µM |
| NC(=S)NNC(=O)c1ccc(C(=O)c2cccc([N+](=O)[O-])c2)cc1 | 45 | 15 | Kic [4]: 16 µM |
| NC(=S)NNC(=O)c1ccc(C(=O)c2ccccc2)cc1 | 34 | 26 | Kic [4]: 13 µM |
| Sc1n[nH]c(-c2ccccc2)n1 |  |  | inhibition [6]: 0% |
| Cc1nnc[nH]1 |  |  | inhibition [6]: 0% |
| NC(=S)NNC(=O)CCC(=O)O | 13 |  |  |
| NC(S)=NNC(=O)c1ccccc1 | 22 | 30 | Kic [4]: 19 µM |
| Cc1ccc(C(=O)c2ccc(C(=O)NNC(N)=S)cc2)cc1 | 38 | 20 | Kic [4]: 41 µM |
| CC(C)(C)C(=O)NNC(N)=S | 0 |  |  |
| Cn1c(S)nnc1C(F)(F)F |  |  | inhibition [6]: 51% |
| CCc1nnc(S)[nH]1 |  |  | inhibition [6]: 32% |

Continued, in another order:

| inhibition [2] [%] | Kiuc [5] [µM] | SMILES | other results |
| --- | --- | --- | --- |
| 0 |  | O=C(O)c1ccccc1-c1nnc(S)[nH]1 | inhibition [3]: 7% |
| 10 |  | O=C(O)CCc1nnc(S)[nH]1 | inhibition [3]: 10% |
| 0 |  | O=C(O)CCCc1nnc(S)[nH]1 | inhibition [3]: 5% |
